This is an account of results in US8383577B2 (Endo Pharmaceuticals Solutions, Inc., priority 2008, dated 2013).

The conditions of data set [1]: cited from earlier work; for CMC: critical micelle concentration; for HLB: hydrophilic-lipophilic balance.
The nature of data set [2]: Formulation study: effect of excipient on implant shape and durability (Example 3). In kind it is physicochemical. To be noted: cartridges about 28% HEMA, about 66.5% HPMA, 5% glycerin. From the text: A series of implants was monitored to determine the effect of excipient on implant shape and durability. Each of the polymer cartridges was composed of about 28% HEMA, about 66.5% HPMA and 5% glycerin.

The subject of data set [3] is GH. The following applies: following a subcutaneous octreotide injection; cited from earlier work.
Data set [4] relates to IGF-1. To be noted: acromegaly patients on octreotide; cited from earlier work.

In the case of Triton X-100, in data set [1], the “CMC” value is 0.2 to 0.9 mM and the HLB was 13.5.
In the case of `OC[C@@H](O)[C@@H](O)[C@H](O)[C@H](O)CO` [mannitol], the “stabilization of the octreotide implant by excipient” value in data set [2] is “did not provide a stabilizing effect and resulted in a decrease in integrity”.
Turning to Sucrose monolaurate, in data set [1], the “CMC” value was 0.2 mM and the HLB is ~8.
Take “L-cysteinamide, D-phenylalanyl-L-cysteiny-L-phenylalanyl-D-tryptophyl-L-lysyl-L-threonyl-N-[2-hydroxy-1-(hydroxymethyl)propyl]-, cyclic(2→7)-disulfide; [Octreotide, L-cysteinamide, D-phenylalanyl-L-cysteiny-L-phenylalanyl-D-tryptophyl-L-lysyl-L-threonyl-N-[2-hydroxy-1-(hydroxymethyl)propyl]-, cyclic(2→7)-disulfide; [R-(R*,R*)]]”: in data set [3], the “time to GH level decrease” value was “usually decrease within two hours”. For the same molecule, in data set [4], the “patients with normalization of IGF-1 levels” value was “up to 60 % of patients”.
Turning to `O=C(O)CO` [glycolic acid], in data set [2], the “stabilization of the octreotide implant by excipient” value is “did not provide a stabilizing effect and resulted in a decrease in integrity”.
On to `CCCCCCCC/C=C\CCCCCCCC(=O)OCCOCC(OCCO)C1OCC(OCCO)C1OCCO` (stereo not shown) [Tween 80], for which, in data set [1], the “CMC” value is listed as 0.012 mM and the HLB is on record as 15.
